Measured values from US11919902B2, “Aryl-bipyridine amine derivatives as phosphatidylinositol phosphate kinase inhibitors” (HiberCell, Inc., priority 2017, dated 2024).
pIC50: −log10 of the molar value.

Tests used:
[1] = molecular target: T1, PIP4K2A (full length protein, SignalChem) (Homo sapiens, UniProt P48426); experiment: Kinase Assay PIP4K2 A (Sprint); ADP-Glo biochemical assay; settings: Table 2; compounds listed under IC50 range headings
T1 construct: 4 nM PIP4K2A (full length protein, SignalChem); purchased SignalChem
T1 sequence (P48426 1-406): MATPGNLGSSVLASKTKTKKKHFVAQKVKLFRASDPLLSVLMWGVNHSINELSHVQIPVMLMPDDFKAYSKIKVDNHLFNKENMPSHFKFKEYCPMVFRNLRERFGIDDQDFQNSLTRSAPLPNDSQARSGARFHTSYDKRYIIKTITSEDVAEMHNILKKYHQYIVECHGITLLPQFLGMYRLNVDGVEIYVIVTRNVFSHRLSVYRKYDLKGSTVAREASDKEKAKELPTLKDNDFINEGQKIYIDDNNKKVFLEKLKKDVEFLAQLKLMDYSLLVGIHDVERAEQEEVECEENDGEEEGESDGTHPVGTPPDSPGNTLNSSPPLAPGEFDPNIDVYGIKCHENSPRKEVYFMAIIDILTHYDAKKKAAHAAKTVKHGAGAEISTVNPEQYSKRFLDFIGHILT
Description: Dilution series of the compounds were prepared in DMSO at 100 times the final assay concentration (n1=n0/3 in 10 points). The compounds were further diluted to three times the assay concentration in assay buffer (20 mM MOPS pH 7.2, 25 mM magnesium chloride, 0.005% Tween 20). 6 μL of the diluted compounds were added to a 384 well assay plate followed by 9 μL of a mix consisting of 4 nM PIP4K2A (full length protein, SignalChem) and 100 μM PI(5)P diC8 (Tebu-Bio). Enzyme and compounds were pre-incubated at room temperature for 15 min.
Then 3 μL of a solution containing 60 μM ATP (Promega) in assay buffer was added to the wells containing compound and enzyme and mixing was performed by pipetting several times. The reaction was incubated at room temperature for 1 h. Then 18 μL of ADP-Glo™ Reagent (Promega) was added to stop the kinase reaction and deplete the unconsumed ATP, mixing was performed by pipetting several times. The plate was incubated at room temperature for 40 min before addition of 36 μL of Kinase Detection Reagent (Promega) to convert ADP to ATP and introduce luciferase and luciferin to detect ATP. The reaction was incubated at room temperature for 40 min before the luminescence was measured in a in a Victor 3V 1420 multilabel counter (Perkin Elmer).
Percent inhibition of the compounds as compared to dimethyl sulfoxide treated control samples was calculated. Compound concentration versus percent inhibition were fitted to generate IC50 values.

GST tagged PIP4KtypeIIB = molecular target: T2, GST tagged PIP4KtypeIIB (Homo sapiens, UniProt P78356); experiment: Trans-FI P kinase assay PIP4K2B (PIP4KtypeIIB inhibition assay); assay type: biochemical; settings: Table 4; compounds listed under IC50 range headings; 100 uM GTP, 5 nM PIP4KIIB; read-out: Trans-FI P kinase assays: PIP4K2B IC50
T2 construct: made in house; host or cells: E. coli
T2 sequence (P78356 1-416): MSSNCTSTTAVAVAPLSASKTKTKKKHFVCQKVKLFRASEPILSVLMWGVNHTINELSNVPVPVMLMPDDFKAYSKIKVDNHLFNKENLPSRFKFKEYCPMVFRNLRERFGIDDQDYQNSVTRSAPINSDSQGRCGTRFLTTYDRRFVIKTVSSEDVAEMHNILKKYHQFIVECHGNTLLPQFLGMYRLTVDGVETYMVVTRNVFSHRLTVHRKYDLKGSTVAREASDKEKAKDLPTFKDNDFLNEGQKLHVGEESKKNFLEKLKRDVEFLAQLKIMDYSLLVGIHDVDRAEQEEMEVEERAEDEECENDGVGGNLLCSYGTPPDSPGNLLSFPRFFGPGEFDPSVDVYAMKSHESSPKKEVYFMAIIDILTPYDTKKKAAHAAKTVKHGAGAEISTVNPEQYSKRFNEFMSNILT
Text: GST tagged PIP4KtypeIIA and B enzymes were overexpressed in E. Coli and purified to >80% homogeneity. Phosphatidyl inositol-5-phosphate (PI5P, Cat. #850152, Avanti Polar Lipids Inc.) was used as the lipid substrate and phosphatidyl ethanolamine (DOPE 18:1, Cat. #850725, Avanti Polar Lipids Inc.) was used as the carrier lipid for assays. Ultrapure ATP and GTP was purchased from Bellbrooke Labs. ADP Glo reagents were obtained from Promega. Transcreener FI reagent was obtained from Bellbrooke labs.
1. HEPES buffer mix: 200 mM HEPES pH 7.4, 50 mM MgCl2, 0.05% v/v triton×100
2. HNE buffer: 20 mM HEPES, pH 7.4, 100 mM NaCl, 0.5 mM EGTA
3. H:E buffer: 30 mM HEPES, pH 7.4, 1 mM EGTA
GST-tagged PIP4KtypeIIB (3.4 uL, 2.77 mg/mL) was diluted to 5 mL using HNE buffer to yield 5× enzyme stock (25 nM)
Lipid Preparation: In a 10 mL pyrex glass vial, lug of PI5P and lug of DOPE were suspended in 2.5 mL of HEPES buffer mix and 2.5 mL of H:E buffer. The contents were mixed and sonicated for 3 min to yield a translucent lipid stock.
Compound Preparation: Compounds were stored as 5 mM stocks in neat DMSO as room temperature in glass vials. 5 mM stocks were diluted to 2 mM and then serially diluted (3×) in neat DMSO in 96 well polypropylene plates. From the serially diluted stocks, 3 uL was delivered into 250 uL of 25% DMSO (in water) to generate 5× compound stocks. Typically, the highest compound conc. was 24 uM.
The assay volume was kept at 25 uL. To each well of the reaction plate, 10 uL of lipid stock (1:1 ratio PI5P:DOPE) was delivered. This was followed by the addition of 5 uL of compound in 25% DMSO. Then, to each well, 5 uL of 25 nM (5×) typeIIB enzyme was delivered. The contents were mixed well and incubated for 1 h at 27 C. After 1 h, reaction was initiated by adding 5 uL of 500 uM GTP and the contents were mixed well with a multi-channel pipetteman. The final concentration of the reagents are as follows: 50 mM HEPES, pH 7.3, 10 mM MgCl2, 20 mM NaCl, 0.01% v/v triton-X100, 5% DMSO, 100 uM GTP, 80 uM (2 ug) PI5P, 2 ug DOPE, and 5 nM PIP4KIIB Typically, the highest conc. of compounds was 4.8 uM and the lowest conc. was 0.
After 2 h, the reaction was quenched by adding 25 uL of transcreener FI reagent. The contents were incubated at RT for 1 h and the Fluorescence (Ex: 584 Em: 623) was read using Molecular Devices Paradigm plate reader. […] The blanks were averaged and subtracted from all other wells. Using a calibration curve, RFU was converted to uM GDP (product). IC50 was calculated by plotting the residual activity (expressed as % No inhibitor control) vs. log [Inh. conc.] Table 2 represents PI5P4K activity of compounds (Example No.) of the invention arranged in accordance with the inhibition of PIP4K2 A kinase assay.

SMILES | pIC50 [1] | pIC50 (GST tagged PIP4KtypeIIB)
CN(C)C(=O)c1ccc(-c2cc(-c3cnc4c(c3)c(-c3cccnc3)cn4C)cnc2N)nc1 [Example 121, 2′-amino-N,N-dimethyl-5′-(1-methyl-3-(pyridin-3-yl)-1H-pyrrolo[2,3-b]pyridin-5-yl)-[2,3′-bipyridine]-5-carboxamide] | 6.00 to 7.00 | 6.00 to 7.00
CN(C)C(=O)c1ccc(-c2cc(-c3cnc4c(c3)c(-c3cncnc3)cn4C)cnc2N)nc1 [Example 122, 2′-amino-N,N-dimethyl-5′-(1-methyl-3-(pyrimidin-5-yl)-1H-pyrrolo[2,3-b]pyridin-5-yl)-[2,3′-bipyridine]-5-carboxamide] | 6.00 to 7.00 | 5.60 to 6.00
O=C(c1cc2c(-c3cncc(-c4ccc(N5CCCC5=O)cc4)c3)ccnc2[nH]1)N1CCCC(O)(C2CC2)C1 (centres unmarked) [Example 210, 1-(4-(5-(2-(3-cyclopropyl-3-hydroxypiperidine-1-carbonyl)-1H-pyrrolo[2,3-b]pyridin-4-yl)pyridin-3-yl)phenyl)pyrrolidin-2-one] | 6.00 to 7.00 | 6.00 to 7.00
COC(=O)c1cc2c(-c3cncc(-c4ccc(-c5nncn5C(C)C)cc4)c3)ccnc2[nH]1 [Example 211, methyl 4-(5-(4-(4-isopropyl-4H-1,2,4-triazol-3-yl)phenyl)pyridin-3-yl)-1H-pyrrolo[2,3-b]pyridine-2-carboxylate] | 7.00 to 8.30 | 8.00 to 9.00
CN1CCn2c(cc3c(-c4cncc(-c5ccc(C(=O)N6CCC7(CC7)C6)cc5)c4)ccnc32)C1=O [Example 230, 4-(5-(4-(5-azaspiro[2.4]heptane-5-carbonyl)phenyl)pyridin-3-yl)-7-methyl-8,9-dihydropyrido[3′,2′:4,5]pyrrolo[1,2-a]pyrazin-6(7H)-one] | 6.00 to 7.00 | 6.00 to 7.00
O=C(NCc1cccc2c1COB2O)c1cc2c(-c3cncc(-c4ccc(N5CCCC5=O)cc4)c3)ccnc2[nH]1 [Example 301, N-((1-hydroxy-1,3-dihydrobenzo[c][1,2]oxaborol-4-yl)methyl)-4-(5-(4-(2-oxopyrrolidin-1-yl)phenyl)pyridin-3-yl)-1H-pyrrolo[2,3-b]pyridine-2-carboxamide] | 7.00 to 8.30 | 7.00 to 8.00
C[C@@H]1CCC(=O)N1c1ccc(-c2cncc(-c3ccnc4c3cc3n4CCN(C)C3=O)c2)cc1 [Example 306, (R)-7-methyl-4-(5-(4-(2-methyl-5-oxopyrrolidin-1-yl)phenyl)pyridin-3-yl)-8,9-dihydropyrido[3′,2′:4,5]pyrrolo[1,2-a]pyrazin-6(7H)-one] | 7.00 to 8.30 | 8.00 to 9.00
Cc1noc2nccc(-c3cncc(-c4ccc(N5CCCC5=O)cc4)c3)c12 [Example 307, 1-(4-(5-(3-methylisoxazolo[5,4-b]pyridin-4-yl)pyridin-3-yl)phenyl)pyrrolidin-2-one] | 5.60 to 6.00 | 6.00 to 7.00
O=C1CCCN1c1ccc(-c2cncc(-c3ccnc4c3cc3n4CCN(c4ccc5c(n4)OCCO5)C3=O)c2)cc1 [Example 308, 7-(2,3-dihydro-[1,4]dioxino[2,3-b]pyridin-6-yl)-4-(5-(4-(2-oxopyrrolidin-1-yl)phenyl)pyridin-3-yl)-8,9-dihydropyrido[3′,2′:4,5]pyrrolo[1,2-a]pyrazin-6(7H)-one] | 6.00 to 7.00 | 8.00 to 9.00
Cc1c[nH]c2nccc(-c3cnc(N)c(-c4ccc(N5CCCC5=O)cc4)c3)c12 [Example 309, 1-(4-(2-amino-5-(3-methyl-1H-pyrrolo[2,3-b]pyridin-4-yl)pyridin-3-yl)phenyl)pyrrolidin-2-one] | 6.00 to 7.00 | 7.00 to 8.00
CN(C(=O)c1cc2c(-c3cncc(-c4ccc(N5CCCC5=O)cc4)c3)ccnc2[nH]1)c1cccnc1 [Example 310, N-methyl-4-(5-(4-(2-oxopyrrolidin-1-yl)phenyl)pyridin-3-yl)-N-(pyridin-3-yl)-1H-pyrrolo[2,3-b]pyridine-2-carboxamide] | 6.00 to 7.00 | 6.00 to 7.00
CN(C(=O)c1cc2c(-c3cncc(-c4ccc(N5CCCC5=O)cc4)c3)ccnc2[nH]1)c1ccccc1 [Example 311, N-methyl-4-(5-(4-(2-oxopyrrolidin-1-yl)phenyl)pyridin-3-yl)-N-phenyl-1H-pyrrolo[2,3-b]pyridine-2-carboxamide] | 5.60 to 6.00 | 6.00 to 7.00
O=C(Nc1ccccn1)c1cc2c(-c3cncc(-c4ccc(N5CCCC5=O)cc4)c3)ccnc2[nH]1 [Example 312, 4-(5-(4-(2-oxopyrrolidin-1-yl)phenyl)pyridin-3-yl)-N-(pyridin-2-yl)-1H-pyrrolo[2,3-b]pyridine-2-carboxamide] | 5.60 to 6.00 | 7.00 to 8.00
CNC(=O)c1[nH]c2nccc(-c3cncc(-c4ccc(N5CCCC5=O)cc4)c3)c2c1C [Example 313, N,3-dimethyl-4-(5-(4-(2-oxopyrrolidin-1-yl)phenyl)pyridin-3-yl)-1H-pyrrolo[2,3-b]pyridine-2-carboxamide] | 5.60 to 6.00 | 6.00 to 7.00
O=C(Nc1ccncc1)c1cc2c(-c3cncc(-c4ccc(N5CCCC5=O)cc4)c3)ccnc2[nH]1 [Example 314, 4-(5-(4-(2-oxopyrrolidin-1-yl)phenyl)pyridin-3-yl)-N-(pyridin-4-yl)-1H-pyrrolo[2,3-b]pyridine-2-carboxamide] | 5.60 to 6.00 | 7.00 to 8.00
Cc1cc2nc(CNC(=O)c3cc4c(-c5cncc(-c6ccc(N7CCCC7=O)cc6)c5)ccnc4[nH]3)[nH]c2cc1C [Example 315, N-((5,6-dimethyl-1H-benzo[d]imidazol-2-yl)methyl)-4-(5-(4-(2-oxopyrrolidin-1-yl)phenyl)pyridin-3-yl)-1H-pyrrolo[2,3-b]pyridine-2-carboxamide] | 5.60 to 6.00 | 6.00 to 7.00
